According to US10160726B2, “Quinolone derivatives as antibacterials” (priority 2014, dated 2018):
Values after ≈ are worked out from the molar mass of the structure shown. Where a name gives a salt, the structure may show the parent alone. Read-outs that look alike come from different tables or passages of the source.

Assays:
Format in all cases: cell-based
[1] = tested on: P. aeruginosa NB52023 (efflux deficient K1542, ΔmexX ΔmexB); test: microbe, parasite or virus in culture; conditions: Pseudomonas aeruginosa, 20 h, read-out: Antibacterial activity (MIC) NB52023
[2] = tested on: P. aeruginosa NB52019 (wild-type PAO1); test: MIC, broth microdilution (CLSI); conditions: Pseudomonas aeruginosa, read-out: Antibacterial activity (MIC) NB52019
[3] = tested on: E. coli NB27177 (efflux deficient CGSC 11430, ΔtolC732::kan); test: microbe, parasite or virus in culture; conditions: Escherichia coli, 20 h, read-out: Antibacterial activity (MIC) NB27177
[4] = tested on: E. coli ATCC 25922 (NB27001); test: MIC, broth microdilution (CLSI); conditions: Escherichia coli, ATCC25922; E. coli ATCC 25922; 35° C., 20 hours; read-out: Antibacterial activity (MIC) NB27001
[5] = tested on: S. aureus ATCC 29213 (NB01001); test: MIC, broth microdilution (CLSI); conditions: Staphylococcus aureus, ATCC29213; S. aureus ATCC 29213; 35° C., 20 hours; read-out: Antibacterial activity (MIC) NB01001
[6] = tested on: P. aeruginosa NB52023-CDK0006 (gyrA T83I, parC S87L); test: microbe, parasite or virus in culture; conditions: Pseudomonas aeruginosa, 20 h, read-out: Antibacterial activity (MIC) NB52023-CDK0006
[7] = tested on: S. aureus NB01006-AVR005 (gyrA S84L, grlA S80F, grlB E471K); test: microbe, parasite or virus in culture; conditions: Staphylococcus aureus, 20 h, read-out: Antibacterial activity (MIC) NB01006-AVR005
[8] = P. aeruginosa wild-type PAO1, 35° C., 20 hours

Row | Compound | MIC [1] [µg/mL] | MIC [2, 8] [µg/mL] | MIC [3] [µg/mL] | MIC [4] [µg/mL] | MIC [5] [µg/mL] | MIC [6] [µg/mL] | MIC [7] [µg/mL] | MIC ([2]; PAO1, 20 h) [µg/mL]
1 | Cl.NCc1c(N2CCC(F)(CN)C2)c(F)cc2ccc(=O)n(C3CC3)c12 (stereo not shown) [Example 111, 8-(aminomethyl)-7-(3-(aminomethyl)-3-fluoropyrrolidin-1-yl)-1-cyclopropyl-6-fluoroquinolin-2(1H)-one HCl salt] | 8 | > 32 | 2 | 8 | 8 | 16 | 8 | 
2 | COCc1cc(=O)n(C2CC2)c2c(C)c(N3CC[C@@H]([C@H](C)N)C3)c(F)cc12 [Example 48, 7-((R)-3-((S)-1-aminoethyl)pyrrolidin-1-yl)-1-cyclopropyl-6-fluoro-4-(methoxymethyl)-8-methylquinolin-2(1H)-one] | 16 (≈ 42.8 µM) |  | 0.06 (≈ 0.161 µM) | 8 (≈ 21.4 µM) | 0.125 (≈ 0.335 µM) | 16 (≈ 42.8 µM) | 0.125 (≈ 0.335 µM) | 32 (≈ 85.7 µM)
3 | Cc1c(N2CC[C@H](CN)C2)c(F)cc2c(C#N)cc(=O)n(C3CC3)c12 [Example 29, (R)-7-(3-(aminomethyl)pyrrolidin-1-yl)-1-cyclopropyl-6-fluoro-8-methyl-2-oxo-1,2-dihydroquinoline-4-carbonitrile] | 2 (≈ 5.88 µM) |  | 0.03 (≈ 0.0881 µM) | 1 (≈ 2.94 µM) | 0.125 (≈ 0.367 µM) | 4 (≈ 11.8 µM) | 0.125 (≈ 0.367 µM) | 8 (≈ 23.5 µM)
4 | Cl.N#Cc1c(N2CC[C@H](N)C2)c(F)cc2ccc(=O)n(C3CC3)c12 [Example 113, (S)-7-(3-aminopyrrolidin-1-yl)-1-cyclopropyl-6-fluoro-2-oxo-1,2-dihydroquinoline-8-carbonitrile HCl salt] | 2 | 16 | 0.125 | 0.5 | 8 | 4 | 16 | 
5 | Cc1c(N2CC[C@@H]([C@H](C)N)C2)c(F)cc2c(N)cc(=O)n(C3CC3)c12 [Example 36, 4-amino-7-((R)-3-((S)-1-aminoethyl)pyrrolidin-1-yl)-1-cyclopropyl-6-fluoro-8-methylquinolin-2(1H)-one] | 16 (≈ 46.5 µM) |  | 1 (≈ 2.9 µM) | 16 (≈ 46.5 µM) | 2 (≈ 5.81 µM) | > 16 | 1 (≈ 2.9 µM) | > 16
6 | COc1cc2ccc(-c3ccc(N)nc3)c(C)c2n(C2CC2)c1=O [Example 78, 7-(6-Aminopyridin-3-yl)-1-cyclopropyl-3-methoxy-8-methylquinolin-2(1H)-one TFA salt] | > 32 |  | 1 | 32 | 8 | > 32 | 16 | > 32
7 | CCOC(=O)/C=C/c1cc(=O)n(C2CC2)c2c(C)c(N3CC[C@@H]([C@H](C)N)C3)c(F)cc12 [Example 21, (E)-ethyl 3-(7-((R)-3-((S)-1-aminoethyl)pyrrolidin-1-yl)-1-cyclopropyl-6-fluoro-8-methyl-2-oxo-1,2-dihydroquinolin-4-yl)acrylate] | 32 (≈ 74.9 µM) |  | 0.125 (≈ 0.292 µM) | 16 (≈ 37.4 µM) | 0.125 (≈ 0.292 µM) | 32 (≈ 74.9 µM) | 0.125 (≈ 0.292 µM) | > 32
8 | Cc1c(N2CC[C@@H]([C@H](C)N)C2)c(F)cc2c(C3=NOS(=O)N3)cc(=O)n(C3CC3)c12 (stereo partly drawn) [Example 41, 7-((R)-3-((S)-1-aminoethyl)pyrrolidin-1-yl)-1-cyclopropyl-6-fluoro-8-methyl-4-(2-oxido-3H-1,2,3,5-oxathiadiazol-4-yl)quinolin-2(1H)-one] | 4 (≈ 9.23 µM) |  | 0.125 (≈ 0.288 µM) | 4 (≈ 9.23 µM) | 0.5 (≈ 1.15 µM) | 8 (≈ 18.5 µM) | 0.5 (≈ 1.15 µM) | 16 (≈ 36.9 µM)
9 | Cc1c(N2CC[C@@H]([C@H](C)N)C2)c(F)cc2c(C(=N)NO)cc(=O)n(C3CC3)c12 [Example 40, 7-((R)-3-((S)-1-aminoethyl)pyrrolidin-1-yl)-1-cyclopropyl-6-fluoro-N-hydroxy-8-methyl-2-oxo-1,2-dihydroquinoline-4-carboximidamide] | 4 (≈ 10.3 µM) |  | 0.5 (≈ 1.29 µM) | 4 (≈ 10.3 µM) | 4 (≈ 10.3 µM) | 8 (≈ 20.6 µM) | 4 (≈ 10.3 µM) | 16 (≈ 41.3 µM)
10 | Cc1c(N2CC[C@@H]([C@H](C)N)C2)c(F)cc2c(OCCCc3n[nH]c(=O)o3)cc(=O)n(C3CC3)c12 [Example 65, 5-(3-((7-((R)-3-((S)-1-aminoethyl)pyrrolidin-1-yl)-1-cyclopropyl-6-fluoro-8-methyl-2-oxo-1,2-dihydroquinolin-4-yl)oxy)propyl)-1,3,4-oxadiazol-2(3H)-one] | > 32 |  | 4 (≈ 8.48 µM) | 32 (≈ 67.9 µM) | 4 (≈ 8.48 µM) | > 32 | 2 (≈ 4.24 µM) | > 32
11 | Cc1c(N2CC[C@@H]([C@H](C)N)C2)c(F)cc2c(CO)cc(=O)n(C3CC3)c12 [Example 47, 7-((R)-3-((S)-1-aminoethyl)pyrrolidin-1-yl)-1-cyclopropyl-6-fluoro-4-(hydroxymethyl)-8-methylquinolin-2(1H)-one] | 4 (≈ 11.1 µM) |  | 0.25 (≈ 0.696 µM) | 16 (≈ 44.5 µM) | 0.25 (≈ 0.696 µM) | 8 (≈ 22.3 µM) | 0.25 (≈ 0.696 µM) | 16 (≈ 44.5 µM)
12 | Cc1c(-c2ccc(N)nc2)ccc2ccc(=O)n(C3CC3)c12 [Example 75, 7-(6-aminopyridin-3-yl)-1-cyclopropyl-8-methylquinolin-2(1H)-one] | 32 (≈ 110 µM) |  | 0.5 (≈ 1.72 µM) | 32 (≈ 110 µM) | 8 (≈ 27.5 µM) | > 32 | 8 (≈ 27.5 µM) | > 32
13 | Cc1c(N2CC[C@@H]([C@H](C)N)C2)c(F)cc2c(OCCCC(=O)NO)cc(=O)n(C3CC3)c12 [Example 60, 4-((7-((R)-3-((S)-1-aminoethyl)pyrrolidin-1-yl)-1-cyclopropyl-6-fluoro-8-methyl-2-oxo-1,2-dihydroquinolin-4-yl)oxy)-N-hydroxybutanamide] | > 32 |  | 1 (≈ 2.24 µM) | 32 (≈ 71.7 µM) | 8 (≈ 17.9 µM) | > 32 | 4 (≈ 8.96 µM) | > 32
14 | COc1c(N2CCC(CN)C2)c(F)cc2ccc(=O)n(C3CC3)c12.O=C(O)C(F)(F)F (stereo not shown) [Example 110, 7-(3-(aminomethyl)pyrrolidin-1-yl)-1-cyclopropyl-6-fluoro-8-methoxyquinolin-2(1H)-one TFA salt] | 16 | > 32 |  | 4 | 0.25 | 32 | 0.125 | 
15 | Cc1c(N2CCC(F)(CN)C2)c(F)cc2cc(CO)c(=O)n(C3CC3)c12 (stereo not shown) [Example 96, 7-(3-(aminomethyl)-3-fluoropyrrolidin-1-yl)-1-cyclopropyl-6-fluoro-3-(hydroxymethyl)-8-methylquinolin-2(1H)-one] | 8 (≈ 22 µM) |  |  | 2 (≈ 5.5 µM) | 0.5 (≈ 1.38 µM) | 8 (≈ 22 µM) | 1 (≈ 2.75 µM) | 32 (≈ 88.1 µM)
16 | Cc1c(N2CC[C@H](O)C2)c(F)c(F)c2c(CN3CCN(C)CC3)cc(=O)n(C3CC3)c12 [Example 90, (S)-1-cyclopropyl-5,6-difluoro-7-(3-hydroxypyrrolidin-1-yl)-8-methyl-4-((4-methylpiperazin-1-yl)methyl)quinolin-2(1H)-one trifluoro acetic acid] | 32 (≈ 74 µM) |  |  | 16 (≈ 37 µM) | 0.125 (≈ 0.289 µM) | 32 (≈ 74 µM) | 0.125 (≈ 0.289 µM) | > 32
